Among the data in ChEMBL document CHEMBL5614457, “New Directions in Antibacterial, Anticancer, and Gene Editing Therapies” (ACS Med Chem Lett, 2024) are Activity values, retold here.

Bounds are passed on as bounds.

For this assay, the target named is Protein cereblon/B-cell lymphoma 6 protein (Homo sapiens) (UniProt Q96SW2+P41182). Put plainly: PROTAC activity at CRBN/N-terminal-HibiT tagged BCL6 in human HT-1080 cells transfected with pLV-UBC-N-HiBiT- BCL6-PGK-puro assessed as degradation of protein by measuring ratio of trough concentration of protein in cell compared to the concentration of protein before the cell contact with compound (Ymin) incubated for 5 hrs by luminescence based NANO-Glo HIBiT lytic detection assay.
For the compound `Cn1nc(C2CCC(=O)NC2=O)c2cccc(N3CCC(OC4CCN(c5ncc(Cl)c(Nc6ccc7c(c6)c6c(c(=O)n7C)OCC(F)(F)[C@H](C7CC7)N6)n5)CC4)CC3)c21` (some centres not stated), the Activity is under 30%.

As to `Cn1nc(C2CCC(=O)NC2=O)c2cccc(N3CCC(CN4CCN(c5ncc(Br)c(Nc6ccc7c(c6)c6c(c(=O)n7C)OCC(F)(F)[C@H](C7CC7)N6)n5)CC4)CC3)c21` (some centres not stated), the Activity was under 30%.

`Cn1nc(C2CCC(=O)NC2=O)c2cccc(N3CCC(CN4CCN(c5ncc(Cl)c(Nc6ccc7c(c6)c6c(c(=O)n7C)OCC(F)(F)[C@H](C7CC7)N6)n5)CC4)CC3)c21` (some centres not stated): the Activity was under 30%. As for `Cn1nc(C2CCC(=O)NC2=O)c2cccc(N3CCN(CC4CCN(c5ncc(Cl)c(Nc6ccc7c(c6)c6c(c(=O)n7C)OCC(F)(F)[C@H](C7CC7)N6)n5)CC4)CC3)c21` (some centres not stated), the figure is under 30%; as for `Cn1nc(C2CCC(=O)NC2=O)c2cccc(C3CCN(CC4CCN(c5ncc(Cl)c(Nc6ccc7c(c6)c6c(c(=O)n7C)OCC(F)(F)[C@H](C7CC7)N6)n5)CC4)CC3)c21` (some centres not stated), under 30%; as for `Cn1nc(C2CCC(=O)NC2=O)c2ccc(N3CCC(CN4CCN(c5cc(Nc6ccc7c(c6)c6c(c(=O)n7C)OCC(F)(F)[C@H](C7CC7)N6)c(Cl)cn5)CC4)CC3)cc21` (some centres not stated), under 30%. As for `Cn1nc(C2CCC(=O)NC2=O)c2cccc(C3CCN(CC4CCN(c5ncc(F)c(Nc6ccc7c(c6)c6c(c(=O)n7C)OCC(F)(F)[C@H](C7CC7)N6)n5)CC4)CC3)c21` (some centres not stated), the figure is under 30%; as for `Cn1nc(C2CCC(=O)NC2=O)c2cccc(N3CCC(CN4CCN(c5ncc(F)c(Nc6ccc7c(c6)c6c(c(=O)n7C)OCC(F)(F)[C@H](C7CC7)N6)n5)CC4)CC3)c21` (some centres not stated), under 30%; as for `Cn1nc(C2CCC(=O)NC2=O)c2cccc(N3CCC(CN4CCN(c5cc(Nc6ccc7c(c6)c6c(c(=O)n7C)OCC(F)(F)[C@H](C7CC7)N6)c(Cl)cn5)CC4)CC3)c21` (some centres not stated), under 30%. Under `C[C@@H](C1CCN(c2cccc3c(C4CCC(=O)NC4=O)nn(C)c23)CC1)N1CCN(c2ncc(Cl)c(Nc3ccc4c(c3)c3c(c(=O)n4C)OCC(F)(F)[C@H](C4CC4)N3)n2)CC1` (some centres not stated) stands under 30%.

Take `Cn1c(=O)c2c(c3cc(Nc4nc(N5CCN(CC6CCN(c7cccc8c7C(=O)N(C7CCC(=O)NC7=O)C8=O)CC6)CC5)ncc4Cl)ccc31)N[C@@H](C1CC1)C(F)(F)CO2` (some centres not stated): the Activity is under 30%.

With `Cn1nc(C2CCC(=O)NC2=O)c2ccc(N3CCC(CN4CCN(c5ncc(F)c(Nc6ccc7c(c6)c6c(c(=O)n7C)OCC(F)(F)[C@H](C7CC7)N6)n5)CC4)CC3)cc21` (some centres not stated), the Activity came to 30%.
